{"source": "patent US20100292306A1", "about": "“Compositions And Methods For The Treatment Of Muscular Dystrophy” (priority 2005, published 2010)", "key": {"[1]": {"system": "IL1-β", "test": "ELISA of IL1-β in cytosolic muscle extracts after single sulfasalazine injection", "assay_type": "in vivo, mdx mice", "details": "SS 100 mg/kg ip single injection, 3 hours", "source_text": "(§1) Each diaphragm was divided into costal and crural regions which were processed and analyzed separately. After determining protein concentrations for each of the cytosolic and nuclear extracts (Lowry assay), samples of each extract were used to obtain standard ELISA determinations of mouse TNFα, IL-6, and IL-1β using standard procedures (Assay Designs, Inc.). These particular NFκB products were chosen because of their role in the inflammatory reaction and previously published results indicating the presence of these cytokines in nondystrophic skeletal muscle homogenates (Molina et al., Neuroimmunomodulation, 4, 28-36, 1997; Jonsdottir et al., J. of Physiol. (Lond.), 528.1, 157-163, 2000; Lang et al., Shock, 19(6), 538-546, 2003).\n(§2) MDX mice aged 3 to 3.5 months were injected with either SS (100 mg/kg) or vehicle (HEPES Ringer; in mM: 147.5 NaCl, 5 KCl, 2 CaCl2, 11 glucose, 5 HEPES, pH 7.35) and euthanized at 3 hours post-injection. The costal and crural diaphragms and the gastrocnemius muscle were then immediately removed and flash frozen before beginning the procedure to obtain nuclear and cytosolic extracts as described in Example 10. ELISA determinations of TNFα, Il1-β, and IL6 were determined as described in Example 9."}, "[2]": {"system": "TNFα", "test": "ELISA of TNFα in cytosolic muscle extracts after single sulfasalazine injection", "assay_type": "in vivo, mdx mice", "details": "mdx costal diaphragm; SS 100 mg/kg ip single injection, 3 hours", "source_text": "as §1, §2"}, "[3]": {"system": "IL6", "test": "ELISA of IL6 in cytosolic muscle extracts after single sulfasalazine injection", "assay_type": "in vivo, mdx mice", "details": "costal and crural diaphragms; SS 100 mg/kg ip single injection, 3 hours", "source_text": "as §1, §2"}, "[4]": {"test": "Observation of viability, side effects and body weight during treatment"}, "[5]": {"system": "mdx TS muscle fibers", "test": "Intracellular recording of resting membrane potential in TS muscle fibers after chronic treatment", "assay_type": "in vivo, mdx mice", "details": "sulfasalazine 100 mg/kg ip daily 68 days, vs vehicle littermate"}, "[6]": {"system": "nuclear NFκB", "test": "EMSA of nuclear NFκB binding in costal diaphragm nuclear extracts after single injection", "assay_type": "in vivo, mdx mice", "details": "sulfasalazine 100 mg/kg ip single injection, 3 hours, mdx 3 to 3.5 months", "protocol": "MDX mice aged 3 to 3.5 months were injected with either sulfasalazine (SS; 100 mg/kg, ip) or vehicle (HEPES Ringer; in mM: 147.5 NaCl, 5 KCl, 2 CaCl2, 11 glucose, 5 HEPES, pH 7.35) and euthanized at 3 hours post-injection. The costal diaphragms were removed and flash frozen before beginning the extract procedure. Nuclear and cytosolic extracts were obtained using a procedure slightly modified from that described in Carlson et al. (2005) and Kumar and Boriek (2003). […] Protein determinations were determined by the method of Lowry using bovine serum albumin standards (20 μg nuclear protein was added to each lane).\n; in mM: 147.5 NaCl, 5 KCl, 2 CaCl2, 11 glucose, 5 HEPES, pH 7.35; 0.1% DMSO) and euthanized at 3 hours post-injection. […] Protein determinations were determined by the method of Lowry using bovine serum albumin standards (20 μg nuclear protein was added to each lane)."}, "[7]": {"system": "nondystrophic and mdx TS muscle fibers", "test": "Effect of Gd^3+ on resting membrane potential of isolated TS muscle preparations", "assay_type": "cell-based, mice", "protocol": "The effect of the Ca^2+ channel blocker, Gd^3+, on the resting membrane potential was examined in both nondystrophic and mdx TS muscle preparations. Gd^3+ blocks both nonselective cation channels and more Ca^2+-selective leak channels (Franco et al., 1991 and Yang and Sachs, 1989) and, at concentrations of 20-100 μM, eliminates fluorometric determinations of resting Ca^2+ influx in a variety of cells (Broad et al., 1999, Carlson and Geisbuhler, 2003, Cox et al., 2002 and Samadi et al., 2005). […]\nThe potential effect of Gd^3+ on resting potential was determined in several nondystrophic (5-17 months) and mdx (5-11.5 months) TS preparations by first recording from several cells in normal HEPES Ringer solution, and then adding 100 μM GdCl3 to the solution while recording continuously from a single fiber. After removing the electrode from the fiber, the resting potential of several additional fibers were determined in the presence of the lanthanide. The average resting potential in nondystrophic fibers bathed in normal HEPES Ringer was −50.1±1.4 (SE) mV, a value lower than that recorded in this laboratory from nondystrophic diaphragm (−63±1.3 mV, N=98 fibers, 5 weeks to 2 years of age; Carlson and Roshek, 2001)."}, "[8]": {"system": "nuclear NF-κB activation", "details": "long term treatment; Durham et al. (2006); cited from earlier work"}}, "note": "Entries after “also recorded” stand apart in the source; their conditions may differ."}
{"smiles": "O=C(O)c1cc(/N=N/c2ccc(S(=O)(=O)Nc3ccccn3)cc2)ccc1O", "note": "[sulfasalazine, Sulfasalazine]", "values": [{"measurement": "expression of IL1-β in cytosolic extracts", "setting": "[1]", "result": "did not reduce; also recorded: not influenced"}, {"measurement": "expression of TNFα in cytosolic extracts", "setting": "[2]", "result": "reduced"}, {"measurement": "expression of IL6 in cytosolic extracts", "setting": "[3]", "result": "did reduce; also recorded: reduced"}, {"measurement": "body weight", "setting": "[4]; SS 100 mg/kg ip daily 68 days", "result": "maintained their body weight"}, {"measurement": "side-effects of chronic treatment schedule", "setting": "[4]; SS 100 mg/kg ip daily 68 days", "result": "no obvious side-effects"}, {"measurement": "side effects after injection", "setting": "[4]; SS 100 mg/kg ip, aside from 5 to 10 sec restlessness", "result": "no obvious side effects"}, {"measurement": "resting potential of TS muscle fibers", "setting": "[5]", "result": "significantly improves"}, {"measurement": "resting potential of TS muscle fibers", "setting": "[5]; listed as SS", "result": "significantly improved"}, {"measurement": "nuclear NFκB binding to consensus sequence / nuclear NF-kappaB activation", "setting": "[6]", "result": "may reduce"}, {"measurement": "nuclear NFκB binding to consensus sequence / nuclear NF-kappaB activation", "setting": "[6]; listed as SS", "result": "reduction"}]}
{"smiles": "[Cl][Gd]([Cl])[Cl]", "note": "[Gd^3+, GdCl3]", "values": [{"measurement": "change in resting potential, total sample of fibers", "setting": "[7]; 100 μM GdCl3, failed to reach statistical significance in nondystrophic or mdx", "result": "slight hyperpolarization"}, {"measurement": "effect on resting potential when added during recording", "setting": "[7]; 100 μM GdCl3 added while recording from nondystrophic or mdx fibers", "result": "No effect"}]}
{"smiles": "COc1cc(/C=C/C(=O)CC(=O)/C=C/c2ccc(O)c(OC)c2)ccc1O", "note": "[curcumin, diferuloylmethane]", "values": [{"measurement": "nuclear NF-κB activation in mdx costal diaphragm", "setting": "[8]", "result": "did not reduce"}]}
